Experimental data taken from US6790865B2, “2-methylpropionic acid derivatives and pharmaceutical compositions comprising the same” (Kissei Pharmaceutical Co., Ltd., priority 1998, dated 2004).
Where a name gives a salt, the structure may show the parent alone.

Columns and labels:
β1-adrenoceptor = target: T1, β1-adrenoceptor (Rattus norvegicus, UniProt P18090); assay: β1-adrenoceptor stimulating effects, isolated rat atria heart rate increase (Magnus method); assay type: cell-based; conditions: isolated male SD rat atria; 100% = heart rate increase after 10^−8M isoproterenol; read-out: EC50 (concentration producing 50% increase of heart rate)
T1 construct: Atria of male SD rats (250 to 400 g in body weight) were isolated; from tissue; host or cells: isolated atria of male SD rats
T1 sequence (P18090 whole entry): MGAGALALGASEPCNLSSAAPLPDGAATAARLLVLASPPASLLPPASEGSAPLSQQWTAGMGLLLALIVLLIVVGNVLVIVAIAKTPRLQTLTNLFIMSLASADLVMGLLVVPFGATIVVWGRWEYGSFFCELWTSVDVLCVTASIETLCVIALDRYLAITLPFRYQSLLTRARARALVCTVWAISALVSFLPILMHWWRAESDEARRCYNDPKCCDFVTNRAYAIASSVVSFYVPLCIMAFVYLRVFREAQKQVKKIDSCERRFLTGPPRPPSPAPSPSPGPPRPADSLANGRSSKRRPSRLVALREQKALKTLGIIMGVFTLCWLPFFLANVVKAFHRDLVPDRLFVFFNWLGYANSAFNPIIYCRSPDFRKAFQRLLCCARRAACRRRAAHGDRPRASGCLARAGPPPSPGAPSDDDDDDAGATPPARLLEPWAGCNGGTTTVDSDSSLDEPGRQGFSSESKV
Description: Namely, atria of rats were isolated and preparations were made. The experiment was conducted according to the Magnus method. The increment of heart rate after the addition of isoproterenol (10^−8M) was expressed as 100%. The drug was added cumulatively. The β1-adrenoceptor stimulating effects were evaluated as the concentration of the drug required to produce 50% increase of heart rate (i.e., EC50 value).
The Experiment for Measuring β1-Adrenoceptor Stimulating Effects
Atria of male SD rats (250 to 400 g in body weight) were isolated and the experiment was conducted according to the Magnus method. The preparations with a tension of 0.5 g were exposed to Krebs-Henseleit solution maintained at 37° C. and gassed with a mixture of 95% oxygen and 5% carbon dioxide. The cardiac contractility was isometrically measured with a force-displacement transducer, and heart rate was recorded on a rectigram via a tachometer. The drug was added cumulatively. The drug efficacy was evaluated as the concentration of the drug required to produce 50% increase of heart rate per minute (i.e., EC50 value). In this experiment, increase of heart rate per minute after addition of 10^−8M of isoproterenol was expressed as 100%.

β2-adrenoceptor = target: T2, β2-adrenoceptor (Rattus norvegicus, UniProt P10608); assay: β2-adrenoceptor stimulating effects, isolated pregnant rat uterus contraction inhibition (Magnus method); assay type: cell-based; conditions: isolated uteri of pregnant SD rats (pregnancy day 21); spontaneous contractions summed over 5 minutes; read-out: EC50 (concentration producing 50% inhibition of uterine contraction)
T2 construct: Uteri of pregnant SD rats (pregnancy day 21) were isolated; from tissue; host or cells: longitudinal uterine strips of pregnant SD rats (day 21)
T2 sequence (P10608 whole entry): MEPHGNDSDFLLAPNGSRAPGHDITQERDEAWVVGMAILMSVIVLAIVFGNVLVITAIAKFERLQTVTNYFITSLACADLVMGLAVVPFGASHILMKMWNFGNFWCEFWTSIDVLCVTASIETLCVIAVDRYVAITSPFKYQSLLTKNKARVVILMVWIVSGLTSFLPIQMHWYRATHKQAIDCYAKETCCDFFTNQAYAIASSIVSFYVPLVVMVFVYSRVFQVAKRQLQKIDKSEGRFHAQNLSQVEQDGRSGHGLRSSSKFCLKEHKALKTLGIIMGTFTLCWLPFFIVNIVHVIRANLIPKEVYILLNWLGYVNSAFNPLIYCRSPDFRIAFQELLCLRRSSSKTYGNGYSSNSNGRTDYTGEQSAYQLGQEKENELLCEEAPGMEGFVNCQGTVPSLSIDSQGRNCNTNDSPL
Description: Also, uteri of pregnant rats were isolated and preparations were made. The experiment was conducted according to the Magnus method. The sum of uterine contractions during 5 minutes before the addition of the drug was expressed as 100%. The drug was added cumulatively. The β2-adrenoceptor stimulating effects were evaluated as the concentration of the drug required when the sum of the contractions during 5 minutes after the addition of the drug produces 50% decrease of the sum of the contractions during 5 minutes before the addition of the drug (i.e., EC50 value).
The Experiment for Measuring β2-Adrenoceptor Stimulating Effects
Uteri of pregnant SD rats (pregnancy day 21) were isolated and longitudinal strips of approximately 15 mm in length and approximately 5 mm in width free from the basal plate were prepared. The experiment was conducted according to the Magnus method. The preparations with a tension of 0.5 g were exposed to Locke-Ringer solution maintained at 37° C. and gassed with a mixture of 95% oxygen and 5% carbon dioxide. Spontaneous contractions of myometrium were isometrically measured with a force-displacement transducer and recorded on a rectigram. The drug was cumulatively added to the Magnus bath every 5 minutes. The drug efficacy was evaluated as the concentration of the drug required to produce 50% of the inhibition of uterine contraction (i.e., EC50 value) by comparing the sum of uterine contraction during 5 minutes after the addition of the drug with the sum of uterine contractions during 5 minutes before the addition of the drug which was expressed as 100%.

male ICR rats = assay: Acute toxicity test; assay type: in vivo
From the text: Furthermore, the compounds represented by the above general formula (I) of the present invention are very safe compounds.

β3-adrenoceptor = β3-adrenoceptor (Mustela putorius furo, UniProt M3YEU4); assay: β3-adrenoceptor stimulating effects, isolated ferret urinary bladder smooth muscle relaxation (Magnus method); assay type: cell-based; conditions: isolated male ferret urinary bladder smooth muscle strips; 0% = maximal relaxation after 10^−5M forskolin; read-out: EC50 (concentration producing 50% decrease of urinary bladder tension)
Sequence of β3-adrenoceptor (M3YEU4 entry or part of it): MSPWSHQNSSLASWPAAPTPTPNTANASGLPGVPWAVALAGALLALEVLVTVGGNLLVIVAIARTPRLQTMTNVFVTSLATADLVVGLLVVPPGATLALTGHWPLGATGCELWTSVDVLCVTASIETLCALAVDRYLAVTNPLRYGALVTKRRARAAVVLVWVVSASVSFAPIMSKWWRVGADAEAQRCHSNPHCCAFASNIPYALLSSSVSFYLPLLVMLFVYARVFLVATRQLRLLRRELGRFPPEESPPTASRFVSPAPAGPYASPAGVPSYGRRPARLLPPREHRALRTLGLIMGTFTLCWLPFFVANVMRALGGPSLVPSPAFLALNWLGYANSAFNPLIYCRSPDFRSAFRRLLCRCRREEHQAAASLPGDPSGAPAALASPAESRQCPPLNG
Description: Namely, urinary bladders of ferrets were isolated and preparations were made. The experiment was conducted according to the Magnus method. The […] tension without the addition of the drug is expressed as 100%, and the tension of maximal relaxation after the addition of 10^−5M of forscolin was expressed as 0%. The drug was added cumulatively. The β3-adrenoceptor stimulating effects were evaluated as the concentration of the drug required to produce 50% decrease of the tension (i.e., EC50 value) (The Japanese Journal of Urology, Vol.89, No.2, p.272 (1998)).
The Experiment for Measuring β3-Adrenoceptor Stimulating Effects
Urinary bladders of male ferrets (1100 to 1400 g in body weight) were isolated and urinary bladder smooth muscle strips of approximately 10 mm in length and approximately 2 mm in width were prepared. The experiment was conducted according to the Magnus method. The preparations with a tension of 1 g were exposed to Krebs-Henseleit solution maintained at 37° C. and gassed with a mixture of 95% oxygen and 5% carbon dioxide. Basal tensions of urinary bladder were isometrically measured with a force-displacement transducer and recorded on a rectigram. […] In this experiment, tension of urinary bladder smooth muscle before the addition of the drug was expressed as 100% and tension of maximal relaxation after the addition of 10^−5M concentration of forskolin was expressed as 0%.

SMILES | EC50 (β2-adrenoceptor) | EC50 (β1-adrenoceptor) | death of animals in acute toxicity test (male ICR rats; male ICR rats of 4 weeks age, intravenous, 400 mg/kg, during 24 hours after administration, 400 mg/kg) | death of animals in acute toxicity test (male ICR rats; male ICR rats of 4 weeks age, intravenous, 400 mg/kg, during 24 hours after administration; 400 mg/kg)) | EC50 (β3-adrenoceptor)
C[C@H](NCCc1ccc(OC(C)(C)C(=O)O)c(Cl)c1)[C@H](O)c1ccc(O)cc1 [Compound 11, 2-[2-Chloro-4-[2-[[(1S,2R)-2-hydroxy-2-(4-hydroxyphenyl)-1-methylethyl]amino]ethyl]phenoxy]-2-methylpropionic acid] | 38 µM | > 100 µM |  |  | 
C[C@H](NCCc1ccc(OC(C)(C)C(=O)O)cc1Cl)[C@H](O)c1ccc(O)cc1 [Compound 9, 2-[3-Chloro-4-[2-[[(1S,2R)-2-hydroxy-2-(4--hydroxyphenyl)-1-methylethyl]amino]ethyl]phenoxy]-2-methylpropionic acid] | 3.1 µM | 35 µM | no death was observed | No death of animals was observed | 
C[C@H](Cc1ccc(OCC(=O)O)cc1)NC[C@H](O)c1cccc(Cl)c1 [BRL-37344, reference compound] | 0.009 µM | 0.27 µM |  |  | 0.0016 µM
CCOC(=O)C(C)(C)Oc1ccc(CCN[C@@H](C)[C@H](O)c2ccc(O)cc2)c(Cl)c1 [Compound 7, Ethyl 2-[3-chloro-4-[2-[[(1S,2R)-2-hydroxy-2-(4-hydroxy-phenyl)-1-methylethyl]amino]ethyl]phenoxy]-2-methyl-propionate hydrochloride] | 0.045 µM | 0.3 µM |  |  | 
C[C@H](NCCc1ccc(OC(C)(C)C(=O)O)cc1)[C@H](O)c1ccc(O)cc1 [Compound 10, 2-[4-[2-[[(1S,2R)-2-Hydroxy-2-(4-hydroxyphenyl)-1-methyl-ethyl]amino]ethyl]phenoxy]-2-methylpropionic acid] | 3.9 µM |  |  |  | 

Now from value to compound, other results behind:

EC50 (β2-adrenoceptor) | SMILES | EC50 (β1-adrenoceptor) | death of animals in acute toxicity test (male ICR rats; male ICR rats of 4 weeks age, intravenous, 400 mg/kg, during 24 hours after administration, 400 mg/kg) | death of animals in acute toxicity test (male ICR rats; male ICR rats of 4 weeks age, intravenous, 400 mg/kg, during 24 hours after administration; 400 mg/kg)) | EC50 (β3-adrenoceptor)
1.4 µM | C[C@H](NCCc1ccc(NC(C)(C)C(=O)O)cc1Cl)[C@H](O)c1ccc(O)cc1 [Compound 14, 2-[[3-Chloro-4-[2-[[(1S,2R)-2-hydroxy-2-(4-hydroxyphenyl)-1-methylethyl]amino]ethyl]phenyl]amino]-2-methylpropionic acid] | 2.2 µM |  |  | 
11 µM | C[C@H](NCCc1ccc(NC(C)(C)C(=O)O)cc1)[C@H](O)c1ccc(O)cc1 [Compound 13, 2-[[4-[2-[[(1S,2R)-2-Hydroxy-2-(4-hydroxyphenyl)-1-methyl-ethyl]amino]ethyl]phenyl]amino]-2-methylpropionic acid] | 39 µM |  |  | 
> 100 µM | Cc1cc(CCN[C@@H](C)[C@H](O)c2ccc(O)cc2)ccc1OC(C)(C)C(=O)O [Compound 12] | > 100 µM |  |  | 
